The nature of the assay: Average concentration of compound to cause 50% inhibition of topoisomerase-1 isolated from calf thymus.

pIC50: −log10 of the molar value.

Consider `CC[C@@]1(O)C(=O)OCc2c1cc1n(c2=O)Cc2c-1nc1cc3c(cc1c2C[n+]1ccccc1)OCCO3` [8-ethyl-8-hydroxy-15-(1-pyridiniumylmethyl)-(8S)-2,3,8,9,12,14-hexahydro-11H-[1,4]dioxino[3,2-g]pyrano[3',4':6,7]indolizino[1,2-b]quinoline-9,12-dione], for which the negative logarithm of the IC50 (pIC50) is 6.72.

Take `CC[C@@]1(O)C(=O)OCc2c1cc1n(c2=O)Cc2c-1nc1cc3c(cc1c2C[n+]1ccncc1)OCCO3` [8-ethyl-8-hydroxy-15-pyrazin-1-ium-1-ylmethyl-(8S)-2,3,8,9,12,14-hexahydro-11H-[1,4]dioxino[3,2-g]pyrano[3',4':6,7]indolizino[1,2-b]quinoline-9,12-dione]: the negative-log IC50 (pIC50) is 6.74.
